Test results published in article PMC7125190, “Native/citrullinated LL37-specific T-cells help autoantibody production in Systemic Lupus Erythematosus” (Scientific Reports, 2020).
Non-standard residues stand in square brackets, D forms with d. Residues, ends and D or L forms follow the SMILES beside them. No end group written: not given here. Cit = NC(=O)NCCC[C@H](N)C(=O)O

Columns and labels:
HLA-DR15 (DRB1*1501) = biological target: T1, HLA-DR15 (DRB1*1501) (Homo sapiens, UniProt P01903+P01911); assay: HLA-DR folding assay (LOCI/AlphaScreen) peptide binding; conditions: axis "Peptide (nM)", LOCI, 48 h at 18 °C, L243 acceptor beads, five-fold titrations, one representative experiment of two shown, read-out: average Ko
T1 construct: made in house; host or cells: E. coli
Procedure: (§1) Human recombinant HLADRA1*01:01, HLA-DRB1*01:01, and HLA-DRB1*15:01 were expressed in E. coli and purified in a series of liquid chromatography based steps[71].
(§2) We performed peptide-MHC binding assays by two different protocols by ImmunAware, Denmark and Benaroya Institute (USA). In the first protocol, binding was measured using a Luminescent Oxygen Channelling Immunoassay (LOCI), marketed by Perkin Elmer as AlphaScreen[72]. This is a nonradioactive bead-based homogenous proximity assay, where the donor beads containing a photosensitizer compound upon excitation with light at a 680 nm wavelength, converts ambient oxygen to energy-rich, short-lived singlet oxygen; that is transferred to a acceptor beads in close proximity only. The acceptor beads can respond to singlet oxygen with a luminescence/ fluorescence cascade leading to an amplified signal in the 520–620 nm range. As one tag binding to the donor beads: a biotin group engineered unto the HLA β chain. As the other tag binding to the acceptor beads: conformation-dependent HLA class II specific antibody (L243). Thus, only when a fully folded complex is present will the donor and acceptor beads come in sufficient close proximity and give a measurable signal. Biotinylated recombinant HLA class II molecules were diluted from an 8 M urea buffer into a folding buffer (PBS, 20% glycerol, Protease inhibitor mix) with peptide concentrations ranging from 0.13 nM to 10,000 nM. The analysed peptides were tested in 5-to-8 five-fold concentration titrations spanning from 20 μM to 0.3 nM. The reaction mixtures were incubated for 48 h at 18 °C to allow for peptide-HLA complex formation reaching steady state. After incubation, 15 μL of the folding mixture was transferred to a 384-well Optiplate (PerkinElmer) followed by addition of 15 μL of a solution containing L243 acceptor beads and streptavidin donor beads (final concentration of beads was 5 μL/mL). The plates were incubated over night at 18 °C, and then measured in enVisionTM, Perkin Elmer. Assay signals measured in […] were plotted against the offered peptide concentrations, and analyzed by non-linear regression using GraphPad Prism. […]
(§3) Figure S7. […] (A,B) Binding of LL37-peptides to HLA-DR1 (DRB1*0101) and to HLA-DR15 (DRB1*1501) was evaluated by a HLA-DR folding assays and detected by Luminescent Oxygen Channelling Immunoassay (LOCI) described in MM. […] (C-F) Binding to DR16 (DRB1*1601), DRB5 (HLA-DRB5*0101), DR4 (HLA-DRB1*0401) and DR10 (DRB1*1001) was evaluated by peptide competitionassay as in MM, and evaluated fluorimetrically. […]

HLA-DR1 (DRB1*0101) = biological target: T2, HLA-DR1 (DRB1*0101) (Homo sapiens, UniProt P01903+P01911, A100R/D57E/F55L/F60I/F76Y/I96L/L162R/M171V/P40L/Q125E/R42F/V115G/Y59C); assay: as above; conditions: axis "Peptide (nM)", LOCI, 48 h at 18 °C, L243 acceptor beads, five-fold titrations, one representative experiment of two shown, read-out: average Ko
T2 construct: made in house; host or cells: E. coli
Procedure: as §1, §2, §3

[1] = test system: SLE/CLE CD4+ T-cell clones; assay: T-cell clone reactivity (BrdU, HLA-matched B-LCLs pulsed with peptide); assay type: cell-based, human; conditions: clones from one SLE and one CLE patient
Procedure: PBMCs were purified, from EDTA-treated blood, on Ficoll-Hypaque (Pharmacia Fine Chemicals, Uppsala, Sweden) were incubated (10^5 cells/well) in 96-well-flat-bottom-microplates (BD) in T cell-medium (RPMI 1640, 10% heat-inactivated human serum, HS, Gibco), 2 mM L-glutamine, 10 U/mL penicillin, and 100 μg/mL streptomycin), with/without peptides. We performed assays on fresh cells, within 1-to-3 hours from collection, or on PBMCs frozen in 90% FCS-10%DMSO, whose viability we assessed by Trypan blue exclusion, at inverted microscope. Recovery of live cells was between 65 and 85 % of the frozen number. At day3 and 5, BrdU was added (1 μg/mL). BrdU-incorporation was detected by APC-labeled anti-BrdU antibody (BD Pharmingen), after surface staining by flow cytometry. Internal control for T-cell viability and proliferation was PHA treatment (2 μg/mL). SI for proliferation was calculated by dividing percent of BrdU-staining in the presence of each peptide used to stimulate cells by percent of BrdU-staining in the absence of peptide stimulation. SI for proliferation was considered positive when>3. This cut-off was obtained by calculating the mean+2DS [1.5 + 2 (0.6)] (of the stimulation indexes calculated as above) of the proliferation of HD. […]
Assays were repeated twice with each patient. […] Ror-ɣt and Bcl-6 were measured by intracellular staining and flow cytometry, after 48 hours culture with LL37 or control antigen, and were analyzed on CD38highCD4 T-cells. […]
PBMCs were stimulated (2x10^6 cells/mL) with LL37 for 7 days and re-stimulated (10 days) with LL37-pulsed (10 µg/mL) autologous-ɣ-irradiated-(30Gy)-PBMCs in T-cell medium in the presence of human/recombinant (hr)IL-2 (Boehringer-Mannheim, Indian, USA). T cell lines-specificity was analyzed by using peptide-pulsed (0.1-10 µg/mL) autologous-irradiated PBMCs (30Gy) or lymphoblastoid-cell-lines (B-LCLs) (150Gy, 33). […]
analyzed by flow-cytometry (after staining by BrdU-detection kit, BD Pharmingen). […] Clones reactivity and HLA-restriction were analyzed using HLA-matched-homozigous B-LCLs, pulsed with […]

CD3+CD4+ T-cells = assay: T-cell proliferation assay (BrdU incorporation of PBMC); assay type: cell-based, human; conditions: SLE/CLE PBMC, day 6, BrdU
Procedure: PBMCs were purified, from EDTA-treated blood, on Ficoll-Hypaque (Pharmacia Fine Chemicals, Uppsala, Sweden) were incubated (10^5 cells/well) in 96-well-flat-bottom-microplates (BD) in T cell- […]
penicillin, and 100 μg/mL streptomycin), with/without peptides. We performed assays on fresh cells, within 1-to-3 hours from collection, or on PBMCs frozen in 90% FCS-10%DMSO, whose viability we assessed by Trypan blue exclusion, at inverted microscope.
At day3 and 5, BrdU was added (1 μg/mL). BrdU-incorporation was detected by APC-labeled anti-BrdU antibody (BD Pharmingen), after surface staining by flow cytometry. Internal control for T-cell viability and proliferation was PHA treatment (2 μg/mL). SI for proliferation was calculated by dividing percent of BrdU-staining in the presence of each peptide used to stimulate cells by percent of BrdU-staining in the absence of peptide stimulation. SI for proliferation was considered positive when>3. This cut-off was obtained by calculating the mean+2DS [1.5 + 2 (0.6)] (of the stimulation indexes calculated as above) of the proliferation of HD.
Basal % of proliferation was set using, as reference, an isotype matched antibody staining (APC- […]
Assays were repeated twice with each patient. In rare cases in which background proliferation exceed antigen-specific proliferation the assay was repeated three times. Concomitant phenotype analysis of LL37-responder T-cells included staining for CD4, CD8, CXCR5, PD1, ICOS, CCR6. […]

[2] = test system: serum antibodies (anti-native LL37/anti-cit-LL37); assay: ELISA for autoantibody detection in sera; assay type: binding, human; conditions: for Antibody response to control peptides in SLE: SLE sera, ELISA OD
Procedure: Anti-native/cit-LL37, other antigen antibodies (anti-DNA and anti-RNA), and total anti-human IgG were measured by ELISA as described. Briefly, 96-well flat-bottom plates (Non-Binding surface polystyrene, Corning, USA) are coated with 2 μg/mL of native LL37/cit-LL37 or control proteins or human DNA or human RNA[9] or anti-human IgG antibody (Sigma) in carbonate buffer (0.1 M NaHCHO3, pH 9) for 2 hours (or over night) and washed four times with PBS 0.1% Tween-20. This washing buffer was used for washing at all steps. The blocking buffer containing 2% bovine serum albumin (BSA, Sigma) in PBS was used for at least 1 hour (or over night) to saturate unspecific binding sites. After washing, sera were diluted at various concentrations (usually 1:100 or 1:200) in PBS 2% BSA (cell culture supernatants were diluted 1:2, 1:4 or 1:10) followed by 1 hour incubation with a horseradish peroxidase–conjugated (HRP) goat anti-human IgG (Sigma-Aldrich), diluted 1:10,000 in PBS. The color was developed for 5 minutes with 3,3’,5,5’-tetramethylbenzidine (TMB) substrate (Sigma-Aldrich). The reaction was stopped by adding 50 μl of 2 N H2SO4, and absorbance determined at 450 nm with a reference wavelength of 540 nm. Anti-dsDNA in sera of lupus patients were detected by the standard clinical test Kallestad Crithidia luciliae Complete Kits for detection and semi-quantitation of autoantibodies to native DNA (nDNA) antigens by indirect fluorescence antibody (IFA) procedure. ELISA for detection of anti-tetanus antibodies (anti-TT) was from Abnova (Taiwan).

DNA = conditions: cited from earlier work

Compound: CC[C@H](C)[C@H](NC(=O)[C@H](CCCCN)NC(=O)[C@H](CCC(=O)O)NC(=O)[C@H](CCCCN)NC(=O)[C@H](CO)NC(=O)[C@H](CCCCN)NC(=O)[C@H](CCCNC(N)=O)NC(=O)[C@H](Cc1ccccc1)NC(=O)[C@H](Cc1ccccc1)NC(=O)[C@H](CC(=O)O)NC(=O)CNC(=O)[C@H](CC(C)C)NC(=O)[C@@H](N)CC(C)C)C(=O)NCC(=O)N[C@@H](CCCCN)C(=O)O [cit-P1] (H-LLGDFF[Cit]KSKEKIGK-OH)
- Kd (HLA-DR15 (DRB1*1501)): 3440 nM

Compound: CC(C)C[C@H](NC(=O)[C@H](Cc1ccccc1)NC(=O)[C@H](CC(=O)O)NC(=O)[C@@H](N)CCCCN)C(=O)N[C@@H](CCCNC(N)=O)C(=O)N[C@@H](CC(N)=O)C(=O)N[C@@H](CC(C)C)C(=O)N[C@H](C(=O)N1CCC[C@H]1C(=O)N[C@@H](CCCNC(N)=O)C(=O)N[C@H](C(=O)N[C@@H](CCC(=O)O)C(=O)N[C@@H](CO)C(=O)O)[C@@H](C)O)C(C)C [cit-P7] (H-KDFL[Cit]NLVP[Cit]TES-OH)
- Kd (HLA-DR1 (DRB1*0101)): 305 nM

Compound: CPKYVKQNTLKLATG [HA306–320, promiscuously presented peptide derived from the hemoagglutinin protein of Influenza A, reference compound]
- T-cell clone reactivity [1]: did not cross-react

Compound: GIINTLQKYYCRVRGGRCAVLSCLPKEEQIGKCSTRGRKCCRRKK [HBD3, control unrelated AMP human β-defensin-3, reference compound]
- T-cell response to control or short peptides (CD3+CD4+ T-cells): not significant

Compound: KDFLRNLVPRTES [P7]
- Kd (HLA-DR1 (DRB1*0101)): 60 nM

Compound: LLGDFFRKSKEKIGK [P1]
- Kd (HLA-DR15 (DRB1*1501)): 700 nM

Compound: SETR(cit)PVLNR(cit)LFDKIR(cit)QVIR(cit)KEFEKGIKEKSKR(cit)FFDGLL [cit-REV, citrullinated REV peptide, reference compound]
- RA sera with antibody reactivity ([2]; RA sera, 14 of 70): 20%
- Antibody response to control peptides in SLE [2]: negative

Compound: SETRPVLNRLFDKIRQVIRKEFEKGIKEKSKRFFDGLL [REV, reference compound]
- T-cell response to control or short peptides (CD3+CD4+ T-cells): did not elicit T-cell responses
- Antibody response to control peptides in SLE [2]: negative
- DNA-binding activity (DNA): retains DNA-binding activity
